Data reported in a compilation of properties of binary mixtures (doi:10.1016/j.molliq.2021.117187).

Test: xn = mol fraction of the nth substance listed
Details: 100 kPa

CCCC[n+]1ccn(C)c1.F[B-](F)(F)F + CCOC(C)=O
speed of sound [m/s]
Details	x1 = 0.1012	x1 = 0.1992	x1 = 0.312	x1 = 0.3985	x1 = 0.5056	x1 = 0.5996	x1 = 0.7054	x1 = 0.7963	x1 = 0.9185
298.15 K	1186	1228.1	–	1307	1351.4	–	1437.5	–	–
303.15 K	1164.6	1207.8	–	–	1334.1	–	1422.3	–	1509.6
308.15 K	–	–	1232	1270.6	1317.1	1360.3	1407.5	–	1496.9
313.15 K	–	1167.6	–	1252.4	–	–	1392.6	1438.8	1484.1
318.15 K	–	1147.5	1193.9	1234.4	1283.1	1328.3	1377.8	1425.1	–
323.15 K	1080.1	1127.5	1175	1216.4	–	1312.6	1363.2	1411.6	1459.1
